Reference: patent publication US9206128B2 (Constellation Pharmaceuticals, Inc., priority 2011, dated 2015)
Each block holds one compound with its values, some of them ahead of it.

What was measured:
EZH2 = EZH2 (Homo sapiens, UniProt Q15910); experiment: EZH2 activity inhibition assay (rPRC2, 3H SAM, biotinylated oligonucleosomes, FlashPlate); assay type: biochemical; details: rPRC2, 2 nM EZH2, 0.2 μM 3H SAM, top concentration 80 μM
Method: (§1) EZH2 Assay: Assays were carried out by mixing rPRC2 together with biotinylated oligonucleosome substrates in the presence of the radio-labeled enzyme co-factor, S-adenosyl-L-methionine (^3H SAM) (Perkin Elmer) and monitoring the enzymatically mediated transfer of tritiated methyl groups from ^3H SAM to histone lysine residues. The amount of resulting tritiated methyl histone product was measured by first capturing the biotinylated oligonucleosomes in streptavidin (SAV) coated FlashPlates (Perkin Elmer), followed by a wash step to remove un-reacted ^3H SAM, and then counting on a TopCount NXT 384 well plate scintillation counter (Perkin Elmer).
A 12.5 μL volume of the HMT enzyme, H3K27me3 peptide and oligonucleosome substrate in assay buffer was added to each well of the assay plate using a Multidrop Combi (ThermoFisher). Compounds were pre-incubated with the enzyme for 20 min, followed by initiation of the methyltransferase reaction by addition of 12.5 μL of 3H SAM in assay buffer (final volume=25 μL). […] Stopped reactions were transferred to SAV coated Flashplates (Perkin Elmer), incubated for 120 min, washed with a plate washer, and then read on the TopCount NXT (1.0 min/well) to measure the amount of methyl histone product formed during the reaction.

Y641N EZH2 = Y641N EZH2 (Homo sapiens, UniProt Q15910, Y641N); experiment: Y641N EZH2 activity inhibition assay (as EZH2 assay, reconstituted H3K27Me2 oligonucleosomes as substrate); assay type: biochemical; details: Y641N EZH2 mutant enzyme
Sequence of Y641N EZH2 (Q15910 whole entry Y641N): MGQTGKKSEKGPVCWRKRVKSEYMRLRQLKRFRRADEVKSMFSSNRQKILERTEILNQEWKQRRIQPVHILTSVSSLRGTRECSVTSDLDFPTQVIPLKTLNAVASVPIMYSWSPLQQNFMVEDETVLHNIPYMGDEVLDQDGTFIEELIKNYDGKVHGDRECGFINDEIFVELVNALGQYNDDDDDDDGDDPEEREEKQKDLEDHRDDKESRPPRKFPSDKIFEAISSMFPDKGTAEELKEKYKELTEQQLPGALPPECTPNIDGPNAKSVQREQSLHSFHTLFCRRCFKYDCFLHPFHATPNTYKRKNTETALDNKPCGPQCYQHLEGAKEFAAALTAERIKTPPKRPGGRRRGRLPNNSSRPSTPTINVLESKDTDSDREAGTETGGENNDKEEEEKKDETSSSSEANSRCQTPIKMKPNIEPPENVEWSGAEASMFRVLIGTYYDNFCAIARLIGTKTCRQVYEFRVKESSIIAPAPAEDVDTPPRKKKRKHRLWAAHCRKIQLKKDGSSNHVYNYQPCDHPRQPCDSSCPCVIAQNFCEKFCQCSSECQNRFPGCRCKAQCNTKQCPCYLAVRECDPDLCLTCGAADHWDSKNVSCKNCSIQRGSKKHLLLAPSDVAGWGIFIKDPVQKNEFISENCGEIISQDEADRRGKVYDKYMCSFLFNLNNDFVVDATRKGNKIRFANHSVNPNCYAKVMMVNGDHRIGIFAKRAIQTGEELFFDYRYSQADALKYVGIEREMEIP
Sequence of Y641N EZH2 (O75530 whole entry partner): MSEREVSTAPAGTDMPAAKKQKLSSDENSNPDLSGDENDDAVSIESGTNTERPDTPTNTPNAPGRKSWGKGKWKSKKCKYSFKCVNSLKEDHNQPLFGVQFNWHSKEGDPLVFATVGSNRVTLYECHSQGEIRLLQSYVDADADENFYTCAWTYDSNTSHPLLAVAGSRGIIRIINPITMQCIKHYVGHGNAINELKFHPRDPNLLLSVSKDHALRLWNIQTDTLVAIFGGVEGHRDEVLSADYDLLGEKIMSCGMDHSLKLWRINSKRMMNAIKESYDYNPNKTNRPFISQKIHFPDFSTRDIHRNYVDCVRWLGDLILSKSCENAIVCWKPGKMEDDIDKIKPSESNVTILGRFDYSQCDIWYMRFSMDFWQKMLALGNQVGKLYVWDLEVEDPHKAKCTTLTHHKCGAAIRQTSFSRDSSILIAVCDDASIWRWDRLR
Sequence of Y641N EZH2 (Q15022 whole entry partner): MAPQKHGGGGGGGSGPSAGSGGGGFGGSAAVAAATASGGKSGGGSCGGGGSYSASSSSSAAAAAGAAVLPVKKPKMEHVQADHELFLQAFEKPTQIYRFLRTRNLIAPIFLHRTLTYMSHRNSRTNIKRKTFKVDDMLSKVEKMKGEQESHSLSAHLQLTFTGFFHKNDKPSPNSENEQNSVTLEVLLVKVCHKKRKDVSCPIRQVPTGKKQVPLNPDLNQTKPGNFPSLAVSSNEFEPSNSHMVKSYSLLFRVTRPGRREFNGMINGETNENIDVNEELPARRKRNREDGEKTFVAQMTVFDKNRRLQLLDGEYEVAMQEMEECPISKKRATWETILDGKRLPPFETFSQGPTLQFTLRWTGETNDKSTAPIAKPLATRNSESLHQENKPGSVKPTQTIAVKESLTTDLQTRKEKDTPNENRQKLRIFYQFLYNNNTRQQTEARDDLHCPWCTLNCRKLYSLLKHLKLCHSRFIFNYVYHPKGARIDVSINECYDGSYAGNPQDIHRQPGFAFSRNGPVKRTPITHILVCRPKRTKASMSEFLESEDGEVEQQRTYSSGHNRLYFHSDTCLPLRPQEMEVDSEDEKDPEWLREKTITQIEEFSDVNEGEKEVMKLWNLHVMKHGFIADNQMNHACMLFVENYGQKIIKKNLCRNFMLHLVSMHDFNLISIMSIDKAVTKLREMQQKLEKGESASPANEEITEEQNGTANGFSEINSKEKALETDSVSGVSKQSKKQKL
Method: as §1, with “Elmer). The final assay conditions for EZH2 were as follows: 50 mM Tris Buffer pH 8.5, 1 mM DTT, 69 μM Brij-35 detergent, 5.0 mM MgCl2, 0.1 mg/mL BSA, 0.2 μM ^3H SAM, 0.2 μM biotinylated oligonucleosomes, 3.6 μM H3K27me3 peptide and 2 nM EZH2.” for “Elmer).”
A 12.5 μL volume of the HMT enzyme, H3K27me3 peptide and oligonucleosome substrate in assay buffer was added to each well of the assay plate using a Multidrop Combi (ThermoFisher). Compounds were pre-incubated with the enzyme for 20 min, followed by initiation of the methyltransferase reaction by addition of 12.5 μL of 3H SAM in assay buffer (final volume=25 μL). The final concentrations of compounds ranged from a top default concentration of 80 μM down to 0.16 μM in ten 2-fold dilution steps. Reactions were carried out for 60 minutes and quenched with 20 μL per well of 1.96 mM SAH, 50 mM Tris PH 8.5, 200 mM EDTA. Stopped reactions were transferred to SAV coated Flashplates (Perkin Elmer), incubated for 120 min, washed with a plate washer, and then read on the TopCount NXT (1.0 min/well) to measure the amount of methyl histone product formed during the reaction.

Sequence of EZH2 (Q15910 whole entry): as the sequence (Q15910 whole entry Y641N) above, with N641Y counted along it
Sequence of EZH2 (O75530 whole entry partner): as the sequence (O75530 whole entry partner) above
Sequence of EZH2 (Q15022 whole entry partner): as the sequence (Q15022 whole entry partner) above

Compound: Cc1cc(C)c(CNC(=O)c2ccc(Oc3ccccc3)nc2)c(=O)[nH]1 [Compound I-16]
IC50 (EZH2): 1 to 10 µM
IC50 (Y641N EZH2): 10 to 50 µM

Compound: Cc1cc(C)c(CNC(=O)c2ccc(Cc3ccccc3)cc2)c(=O)[nH]1 [Compound I-34, 4-benzyl-N-((2-hydroxy-4,6-dimethylpyridin-3-yl)methyl)benzamide]
IC50 (EZH2): < 1 µM
IC50 (Y641N EZH2): 1 to 10 µM

Compound: COc1cc(Oc2ccccc2)ccc1C(=O)NCc1c(C)cc(C)[nH]c1=O [Compound I-32, N-((2-hydroxy-4,6-dimethylpyridin-3-yl)methyl)-2-methoxy-4-phenoxybenzamide]
IC50 (EZH2): < 1 µM
IC50 (Y641N EZH2): 1 to 10 µM

Compound: Cc1cc(C)c(CNC(=O)c2ccc(C(O)c3ccccc3)cc2)c(=O)[nH]1 (stereo not shown) [Compound I-24]
IC50 (EZH2): 10 to 50 µM
IC50 (Y641N EZH2): > 50 µM

Compound: Cc1cc(C)c(CNC(=O)c2ccc(C(CO)Oc3ccccc3)cc2)c(=O)[nH]1 (stereo not shown) [Compound I-183, 4-(2-hydroxy-1-phenoxyethyl)-N-((2-hydroxy-4,6-dimethylpyridin-3-yl)methyl)benzamide]
IC50 (EZH2): 1 to 10 µM
IC50 (Y641N EZH2): > 80 µM

Compound: Cc1cc(C)c(CNC(=O)c2ccc(N(C)c3ccccc3)cc2)c(=O)[nH]1 [Compound I-13]
IC50 (EZH2): < 1 µM
IC50 (Y641N EZH2): 1 to 10 µM

Compound: Cc1cc(C)c(CNC(=O)c2c(C)cn(C(C)c3ccccc3)c(=O)c2C)c(=O)[nH]1 (stereo not shown) [Compound I-200, N-((4,6-dimethyl-2-oxo-1,2-dihydropyridin-3-yl)methyl)-3,5-dimethyl-2-oxo-1-(1-phenylethyl)-1,2-dihydropyridine-4-carboxamide]
IC50 (EZH2): < 1 µM
IC50 (Y641N EZH2): 1 to 10 µM

Compound: Cc1nc(C)c(CNC(=O)c2ccc(Oc3ccccc3)cc2)c(=O)[nH]1 [Compound I-59, N-((4-hydroxy-2,6-dimethylpyrimidin-5-yl)methyl)-4-phenoxybenzamide]
IC50 (EZH2): 1 to 10 µM
IC50 (Y641N EZH2): 1 to 10 µM

Compound: COc1ccnc(Oc2ccc(C(=O)NCc3c(C)cc(C)[nH]c3=O)cc2)n1 [Compound I-15]
IC50 (EZH2): > 50 µM
IC50 (Y641N EZH2): > 80 µM

Compound: Cc1cc(C)c(CNC(=O)c2ccc(C(C)Oc3ccccn3)cc2)c(=O)[nH]1 (stereo not shown) [Compound I-60, N-((2-hydroxy-4,6-dimethylpyridin-3-yl)methyl)-4-(1-(pyridin-2-yloxy)ethyl)benzamide]
IC50 (EZH2): < 1 µM
IC50 (Y641N EZH2): 1 to 10 µM

Compound: Cc1cc(C)c(CNC(=O)c2ccc(C3CCCC3)cc2)c(=O)[nH]1 [Compound I-86, 4-cyclopentyl-N-((2-hydroxy-4,6-dimethylpyridin-3-yl)methyl)benzamide]
IC50 (EZH2): < 1 µM
IC50 (Y641N EZH2): 1 to 10 µM

Compound: Cc1cc(C)c(CNC(=O)c2ccc(C(C)Oc3ccccc3)c(F)c2)c(=O)[nH]1 (stereo not shown) [Compound I-63, 3-fluoro-N-((2-hydroxy-4,6-dimethylpyridin-3-yl)methyl)-4-(1-phenoxyethyl)benzamide]
IC50 (EZH2): < 1 µM
IC50 (Y641N EZH2): < 1 µM

Now from value to compound:

IC50 (EZH2): 1 to 10 µM
IC50 (Y641N EZH2): 10 to 50 µM
Compound: Cc1cc(C)c(CNC(=O)c2ccc(Oc3ccccc3C#N)cc2)c(=O)[nH]1 [Compound I-2, 4-(2-cyanophenoxy)-N-((2-hydroxy-4,6-dimethylpyridin-3-yl)methyl)benzamide]

IC50 (EZH2): > 80 µM
IC50 (Y641N EZH2): > 80 µM
Compound: Cc1cc(CNC(=O)c2ccc(C(C)Oc3ccccc3)cc2)c(=O)[nH]c1C (stereo not shown) [Compound I-157]

IC50 (EZH2): > 50 µM
IC50 (Y641N EZH2): > 80 µM
Compound: Cc1cc(C)c(CNC(=O)c2ccc(Oc3ncccn3)cc2)c(=O)[nH]1 [Compound I-14]

IC50 (EZH2): 1 to 10 µM
IC50 (Y641N EZH2): 1 to 10 µM
Compound: Cc1cc(C)c(CNC(=O)c2ccc(Oc3ccccc3)c(C)c2)c(=O)[nH]1 [Compound I-37, N-((2-hydroxy-4,6-dimethylpyridin-3-yl)methyl)-3-methyl-4-phenoxybenzamide]

IC50 (EZH2): 10 to 50 µM
IC50 (Y641N EZH2): > 80 µM
Compound: Cc1cc(C(F)(F)F)c(CNC(=O)c2ccc(Oc3ccccc3)cc2)c(=O)[nH]1 [Compound I-65, N-((2-hydroxy-6-methyl-4-(trifluoromethyl)pyridin-3-yl)methyl)-4-phenoxybenzamide]
